Test results reported in publication PMC11507441, “Oilseed Cakes: A Promising Source of Antioxidant, and Anti-Inflammatory Agents—Insights from Lactuca sativa” (International Journal of Molecular Sciences, 2024).

Tests used:
CAT = CAT activity in rat paw tissue homogenate (carrageenan model); format: in vivo; details: for CAT (U/gm Tissue): paw tissue 5 h after carrageenan
Description: (§1) The levels of inflammatory mediators (IL-1β, TNF-α, and PGE2) in rat paw tissue homogenate were measured using the following Kits: Rat TNF-α (Tumor Necrosis Factor Alpha) ELISA Kit from Elabscience® Company, Houston, TX, USA, Interleukin 1 Beta (IL-1b) Organism Species: Rattus norvegicus (Rat) from Cloud Clone Crop Company and Rat PGE2 (Prostaglandin E2) ELISA Kit from Fine test® company Hubei, China. In addition, oxidative stress parameters in rat paw tissue homogenate were measured using superoxide dismutase, glutathione peroxidase, and catalase Kits from the Biodiagnostic company, Birmingham, UK.
(§2) Rats were slaughtered, and their paw tissues were gathered and weighed five hours after the carrageenan was administered. The tissues underwent processing after being fixed in 10% formalin. Rat paw tissue was homogenized, and its oxidative stress indices (SOD, CAT, and GPx) as well as the levels of inflammatory mediators (IL-1β, TNF-α, and PGE2) were measured.

IL-1β = IL-1β in rat paw tissue homogenate (carrageenan model); format: in vivo; details: doses of 20 and 40 mg/kg; compared to the vehicle control group
Description: as §1, §2

P. aeruginosa = assay: Antimicrobial screening, zone of inhibition; format: cell-based; details: Table 1
Description: The procedure was performed according to Stylianakis et al.. A comparison of the extract’s zone of inhibition to that of a reference antibiotic’s activity index was determined using the following equation:Activity index = (the inhibition zone of extract/the inhibition zone of the standard) × 100

S. aureus = assay: Antimicrobial screening, zone of inhibition; format: cell-based; details: Table 1
Description: The procedure was performed according to […] et al.. A comparison of the extract's zone of inhibition to that of a reference antibiotic's activity index was determined using the following equation:Activity index = (the inhibition zone of extract/the inhibition zone of the standard) × 100

[1] = tested on: carrageenan-induced paw oedema; assay: Carrageenan-induced paw oedema; format: in vivo; details: rat
Description: Adult albino rats 180-220 g of both sexes used in the investigation were acquired from the Mansoura University Faculty of Pharmacy's Animal House. Standard laboratory diet and water were provided, and they were housed in cages maintained at a constant temperature of 22 ± 2 °C. The Animal Care and Use Committee (MU-ACUC) of Mansoura University, Egypt, has approved all procedures involving animals with code number: […] Throughout the experiment, medications and extracts were given orally in doses of 1 mL/100 g of the rat's body weight after being solubilized in carboxymethyl cellulose (CMC) in order to create a suspension formula. In this test, rats were divided into six groups, with each group containing 5 animals. Group-1: […] Group-2: Positive control (carrageenan-induced oedema, Sigma (St. Louis, MO, USA)) without any treatment. […] Group-4: […] extract of Lactuca sativa was administered at a 2 g/kg dose. Group-5: Compound (1) is administered at a dose of 20 mg/kg. Group-6: Compound (1) at a dose of 40 mg/kg. Group-7: Combination of standard and compound (1) at doses of (10 + 20) mg/kg, respectively. […] Using a digital vernier calliper, the swelling of the paw that had been injected with carrageenan was measured prior to injection as well as 1, 2, 3, 4, and 5 h following the treatment's induction. The percentage inhibition of oedema in the test animals treated with the extract compared to the carrageenan control group was used to calculate the anti-inflammatory activity. The formula […] was used to calculate the percentage inhibition of inflammation, where “dt” represents the difference in paw volume in the drug-treated group and “dc” represents the difference in paw volume relative to the control group. Moreover, “I” represents the suppression of inflammation.

SOD = SOD activity in rat paw tissue homogenate (carrageenan model); format: in vivo; details: for SOD (U/gm Tissue): paw tissue 5 h after carrageenan
Description: as §1, §2

dermal inflammation = assay: Histopathological assessment of paw skin tissue (carrageenan model); format: in vivo, rat; details: 5 h after carrageenan
Description: Five hours following the carrageenan injection, tissue specimen samples from the paw skin tissue of every group under study were removed for histological examination. Prior to being submerged in paraffin blocks, they were fixed in a 10% formalin solution and stained with hematoxylin-eosin. Using a microtome, paraffin sections with a thickness of 5 µm were cut, and hematoxylin and eosin were frequently applied to the sections. Microscopically, these tissue slices were inspected. Consequently, the sections were examined under a light microscope; on the other hand, photos taken with a digital camera (Canon Power-shot D10) recorded the progression of paw oedema.

TNF-α = TNF-α in rat paw tissue homogenate (carrageenan model); format: in vivo; details: doses of 20 and 40 mg/kg; compared to the vehicle control group
Description: as §1, §2

[2] = 40 mg/kg, compared to the control group
[3] = 1 mg/mL, relative to ciprofloxacin

SMILES: NC(CO)C(O)c1ccc2c(c1)OCO2 (stereo not shown) [Compound 1, 1,3-propanediol-2-amino-1-(3′,4′-methylenedioxyphenyl)]
- CAT activity restored (CAT; [2]): 72.08%
- CAT (U/gm Tissue) (CAT; 20 mg/kg): 1.50 ± 0.19 U/gm Tissue
- CAT (U/gm Tissue) (CAT; 40 mg/kg): 2.04 ± 0.26 U/gm Tissue
- IL-1β level in paw tissue (IL-1β): significant reduction
- zone of inhibition at 1000 µg/mL (P. aeruginosa; Pseudomonas aeruginosa, isolated compounds 1 mg/mL, read-out: P. aeruginosa Diameter of Inhibition Zone (mm)): 3.8 ± 0.2 mm
- P. aeruginosa %Activity Index (P. aeruginosa; [3]): 16.5%
- zone of inhibition at 1000 µg/mL (S. aureus; Staphylococcus aureus, isolated compounds 1 mg/mL, read-out: S. aureus Diameter of Inhibition Zone (mm)): 6.9 ± 0.1 mm
- S. aureus %Activity Index (S. aureus; [3]): 28.9%
- % Inhibition (%I) of paw oedema ([1]; 1 h, dose 20 mg/kg oral): 10.25%
- Increase in Paw Oedema ([1]; 1 h, dose 20 mg/kg oral): 1.05 ± 0.20 mL
- % Inhibition (%I) of paw oedema ([1]; 1 h, dose 40 mg/kg oral): 16.32%
- Increase in Paw Oedema ([1]; 1 h, dose 40 mg/kg oral): 0.77 ± 0.28 mL
- % Inhibition (%I) of paw oedema ([1]; 2 h, dose 20 mg/kg oral): 23.51%
- Increase in Paw Oedema ([1]; 2 h, dose 20 mg/kg oral): 1.81 ± 0.44 mL
- % Inhibition (%I) of paw oedema ([1]; 2 h, dose 40 mg/kg oral): 27.07%
- Increase in Paw Oedema ([1]; 2 h, dose 40 mg/kg oral): 1.59 ± 0.22 mL
- % Inhibition (%I) of paw oedema ([1]; 3 h, dose 20 mg/kg oral): 23.77%
- Increase in Paw Oedema ([1]; 3 h, dose 20 mg/kg oral): 2.26 ± 0.28 mL
- % Inhibition (%I) of paw oedema ([1]; 3 h, dose 40 mg/kg oral): 26.1%
- Increase in Paw Oedema ([1]; 3 h, dose 40 mg/kg oral): 2.11 ± 0.29 mL
- % Inhibition (%I) of paw oedema ([1]; 4 h, dose 20 mg/kg oral): 45.36%
- Increase in Paw Oedema ([1]; 4 h, dose 20 mg/kg oral): 2.18 ± 0.74 mL
- % Inhibition (%I) of paw oedema ([1]; 4 h, dose 40 mg/kg oral): 55.39%
- Increase in Paw Oedema ([1]; 4 h, dose 40 mg/kg oral): 1.78 ± 0.45 mL
- % Inhibition (%I) of paw oedema ([1]; 5 h, dose 20 mg/kg oral): 57.63%
- Increase in Paw Oedema ([1]; 5 h, dose 20 mg/kg oral): 1.75 ± 0.46 mL
- % Inhibition (%I) of paw oedema ([1]; 5 h, dose 40 mg/kg oral): 63.92%
- Increase in Paw Oedema ([1]; 5 h, dose 40 mg/kg oral): 1.49 ± 0.49 mL
- SOD activity restored (SOD; [2]): 71.43%
- SOD (U/gm Tissue) (SOD; 20 mg/kg): 118.35 ± 1.06 U/gm Tissue
- SOD (U/gm Tissue) (SOD; 40 mg/kg): 135.05 ± 11.67 U/gm Tissue
- Histopathology of paw skin (H&E) (dermal inflammation; Group 6, 40 mg/kg): substantial reduction in dermal inflammation
- Histopathology of paw skin (H&E) (dermal inflammation; oral 20 mg/kg): moderate decrease in both inflammation and leukocyte infiltration
- TNF-α level in paw tissue (TNF-α): significant reduction
